Converted amounts (≈) assume the structure as drawn.
Experiments:
[1] = target: Cyclin-dependent kinase 1 (Homo sapiens, UniProt P06493)
[2] = target: Cyclin-dependent kinase 2 (Homo sapiens, UniProt P24941); test: Inhibition of CDK2 (unknown origin)
[3] = target: Cyclin-dependent kinase 5 (Homo sapiens, UniProt Q00535)
[4] = target: Cyclin-dependent kinase 4 (Homo sapiens, UniProt P11802); test: Inhibition of CDK4 (unknown origin)
[5] = target: Cyclin-dependent kinase 3 (Homo sapiens, UniProt Q00526); test: Inhibition of CDK3 (unknown origin)
Chain of Cyclin-dependent kinase 3 (Q00526 whole entry): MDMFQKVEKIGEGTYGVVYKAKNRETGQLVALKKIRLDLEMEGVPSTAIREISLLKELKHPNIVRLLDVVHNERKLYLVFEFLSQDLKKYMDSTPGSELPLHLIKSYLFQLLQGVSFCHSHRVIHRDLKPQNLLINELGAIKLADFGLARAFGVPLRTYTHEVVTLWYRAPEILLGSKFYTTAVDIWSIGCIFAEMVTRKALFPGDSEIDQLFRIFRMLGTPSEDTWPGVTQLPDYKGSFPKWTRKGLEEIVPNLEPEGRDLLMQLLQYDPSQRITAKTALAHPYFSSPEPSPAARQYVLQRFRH

NCI-H69 = test: Antiproliferative activity against human NCI-H69 cells assessed as inhibition of cell growth incubated for 72 hrs by CCK8 assay; type: functional, cell-based; details: NCI-H69, 72 h
NCI-H446 [6] = test: Antiproliferative activity against human NCI-H446 cells assessed as inhibition of cell growth incubated for 72 hrs by CCK8 assay; type: functional, cell-based; details: NCI-H446, 72 h
[7] = target: Protein cereblon/Cyclin-dependent kinase 9 (Homo sapiens, UniProt P50750+Q96SW2); test: PROTAC activity at CRBN/CDK9 in human NCI-H69 cells assessed as induction of CDK9 degradation incubated for 8 hrs by Western blot analysis; type: cell-based
Chain of Protein cereblon/Cyclin-dependent kinase 9 (P50750 whole entry): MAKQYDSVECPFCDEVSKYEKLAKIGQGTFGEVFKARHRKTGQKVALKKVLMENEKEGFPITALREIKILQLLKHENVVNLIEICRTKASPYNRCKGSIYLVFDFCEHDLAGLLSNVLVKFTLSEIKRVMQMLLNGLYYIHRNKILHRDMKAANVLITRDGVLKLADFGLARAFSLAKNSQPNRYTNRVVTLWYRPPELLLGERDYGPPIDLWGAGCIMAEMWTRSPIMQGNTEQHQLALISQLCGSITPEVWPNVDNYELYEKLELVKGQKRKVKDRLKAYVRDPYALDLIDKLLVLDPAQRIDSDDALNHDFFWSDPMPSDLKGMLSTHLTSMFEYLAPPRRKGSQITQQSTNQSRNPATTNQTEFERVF
Chain of Protein cereblon/Cyclin-dependent kinase 9 (Q96SW2 whole entry): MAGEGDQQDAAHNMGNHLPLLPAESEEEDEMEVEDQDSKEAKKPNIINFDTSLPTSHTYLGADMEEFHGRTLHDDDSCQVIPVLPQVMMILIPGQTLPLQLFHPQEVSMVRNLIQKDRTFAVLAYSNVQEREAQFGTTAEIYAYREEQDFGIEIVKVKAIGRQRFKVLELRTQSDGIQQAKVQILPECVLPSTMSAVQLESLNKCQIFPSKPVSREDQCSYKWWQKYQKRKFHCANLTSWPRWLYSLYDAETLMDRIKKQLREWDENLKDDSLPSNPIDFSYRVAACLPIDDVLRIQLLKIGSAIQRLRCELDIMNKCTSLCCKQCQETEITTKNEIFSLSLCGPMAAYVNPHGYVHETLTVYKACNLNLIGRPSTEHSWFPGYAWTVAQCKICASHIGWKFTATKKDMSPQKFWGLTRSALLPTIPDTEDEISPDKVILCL

[8] = Metabolic stability in mouse liver microsomes assessed as parent compound remaining measured after 60 mins; type: ADME, Microsome; details: read-out: Stability
[9] = Metabolic stability in mouse liver microsomes assessed as half-life; type: ADME, Microsome; details: liver microsomes
[10] = Metabolic stability in mouse liver microsomes assessed as intrinsic clearance; type: ADME, Microsome; details: liver microsomes, read-out: CLH
[11] = Metabolic stability in human liver microsomes assessed as parent compound remaining measured after 60 mins; type: ADME, Microsome; details: read-out: Stability
[12] = Metabolic stability in human liver microsomes assessed as half-life; type: ADME, Microsome; details: liver microsomes
[13] = Metabolic stability in human liver microsomes assessed as intrinsic clearance; type: ADME, Microsome; details: liver microsomes, read-out: CLH
[14] = Apparent permeability across apical to basolateral side in human Caco-2 cells at 2 uM measured after 60 mins by HPLC analysis; type: ADME, cell-based
[15] = Apparent permeability across basolateral to apical side in human Caco-2 cells at 2 uM measured after 60 mins by HPLC analysis; type: ADME, cell-based
[16] = Efflux ratio of apparent permeability across basolateral to apical over apical to basolateral side in human Caco-2 cells at 2 uM measured after 60 mins by HPLC analysis; type: ADME, cell-based
[17] = Kinetic solubility of compound in FeSSIF buffer incubated for 2 hrs by LC-MS/MS analysis; type: physicochemical; details: read-out: Kinetic_solubility
[18] = Half-life in mouse at 5 mg/kg, iv; type: ADME, organism-based; details: in vivo
[19] = Cmax in mouse at 5 mg/kg, iv; type: ADME, organism-based; details: in vivo
[20] = AUC (0 to 24 hrs) in mouse at 5 mg/kg, iv; type: ADME, organism-based; details: in vivo
[21] = AUC (0 to infinity) in mouse at 5 mg/kg, iv; type: ADME, organism-based; details: in vivo
[22] = Half-life in mouse at 25 mg/kg, po; type: ADME, organism-based; details: in vivo
[23] = Cmax in mouse at 25 mg/kg, po; type: ADME, organism-based; details: in vivo
[24] = AUC (0 to 24 hrs) in mouse at 25 mg/kg, po; type: ADME, organism-based; details: in vivo
[25] = AUC (0 to infinity) in mouse at 25 mg/kg, po; type: ADME, organism-based; details: in vivo
[26] = Oral bioavailability in mouse at 25 mg/kg; type: ADME, organism-based; details: in vivo
[27] = Half-life in Sprague-Dawley rat at 5 mg/kg, iv measured after 12 hrs by LC-MS/MS analysis; type: ADME, organism-based; details: in vivo
[28] = Cmax in Sprague-Dawley rat at 5 mg/kg, iv measured after 12 hrs by LC-MS/MS analysis; type: ADME, organism-based; details: in vivo
[29] = AUC (0 to 24 hrs) in Sprague-Dawley rat at 5 mg/kg, iv measured after 12 hrs by LC-MS/MS analysis; type: ADME, organism-based; details: in vivo
[30] = AUC (0 to infinity) in Sprague-Dawley rat at 5 mg/kg, iv measured after 12 hrs by LC-MS/MS analysis; type: ADME, organism-based; details: in vivo
[31] = Half-life in Sprague-Dawley rat at 25 mg/kg, po measured after 12 hrs by LC-MS/MS analysis; type: ADME, organism-based; details: in vivo
[32] = Cmax in Sprague-Dawley rat at 25 mg/kg, po measured after 12 hrs by LC-MS/MS analysis; type: ADME, organism-based; details: in vivo
[33] = AUC (0 to 24 hrs) in Sprague-Dawley rat at 25 mg/kg, po measured after 12 hrs by LC-MS/MS analysis; type: ADME, organism-based; details: in vivo
[34] = AUC (0 to infinity) in Sprague-Dawley rat at 25 mg/kg, po measured after 12 hrs by LC-MS/MS analysis; type: ADME, organism-based; details: in vivo
[35] = Oral bioavailability in Sprague-Dawley rat at 25 mg/kg measured after 12 hrs by LC-MS/MS analysis; type: ADME, organism-based; details: in vivo
NCI-H146 = test: Antiproliferative activity against human NCI-H146 cells assessed as inhibition of cell growth incubated for 72 hrs by CCK8 assay; type: functional, cell-based; details: NCI-H146, 72 h
NCI-H524 = test: Antiproliferative activity against human NCI-H524 cells assessed as inhibition of cell growth incubated for 72 hrs by CCK8 assay; type: functional, cell-based; details: NCI-H524, 72 h
DMS-114 = test: Antiproliferative activity against human DMS-114 cells assessed as inhibition of cell growth incubated for 72 hrs by CCK8 assay; type: functional, cell-based; details: DMS-114, 72 h
[36] = Cytotoxicity against human MCF-10A cells assessed as inhibition of cell growth incubated for 72 hrs by CCK8 assay; type: toxicity, cell-based
[37] = Cytotoxicity against human BEAS-2B cells assessed as inhibition of cell growth incubated for 72 hrs by CCK8 assay; type: toxicity, cell-based
[38] = Cytotoxicity against human L02 cells assessed as inhibition of cell growth incubated for 72 hrs by CCK8 assay; type: toxicity, cell-based
[39] = Cytotoxicity against HEK293T cells assessed as inhibition of cell growth incubated for 72 hrs by CCK8 assay; type: toxicity, cell-based, HEK-293T; details: human
[40] = target: Voltage-gated inwardly rectifying potassium channel KCNH2 (Homo sapiens, UniProt Q12809); test: Inhibition of human ERG expressed in HEK293 cells by manual-patch clamp assay; type: toxicity, cell-based
Chain of Voltage-gated inwardly rectifying potassium channel KCNH2 (Q12809 whole entry): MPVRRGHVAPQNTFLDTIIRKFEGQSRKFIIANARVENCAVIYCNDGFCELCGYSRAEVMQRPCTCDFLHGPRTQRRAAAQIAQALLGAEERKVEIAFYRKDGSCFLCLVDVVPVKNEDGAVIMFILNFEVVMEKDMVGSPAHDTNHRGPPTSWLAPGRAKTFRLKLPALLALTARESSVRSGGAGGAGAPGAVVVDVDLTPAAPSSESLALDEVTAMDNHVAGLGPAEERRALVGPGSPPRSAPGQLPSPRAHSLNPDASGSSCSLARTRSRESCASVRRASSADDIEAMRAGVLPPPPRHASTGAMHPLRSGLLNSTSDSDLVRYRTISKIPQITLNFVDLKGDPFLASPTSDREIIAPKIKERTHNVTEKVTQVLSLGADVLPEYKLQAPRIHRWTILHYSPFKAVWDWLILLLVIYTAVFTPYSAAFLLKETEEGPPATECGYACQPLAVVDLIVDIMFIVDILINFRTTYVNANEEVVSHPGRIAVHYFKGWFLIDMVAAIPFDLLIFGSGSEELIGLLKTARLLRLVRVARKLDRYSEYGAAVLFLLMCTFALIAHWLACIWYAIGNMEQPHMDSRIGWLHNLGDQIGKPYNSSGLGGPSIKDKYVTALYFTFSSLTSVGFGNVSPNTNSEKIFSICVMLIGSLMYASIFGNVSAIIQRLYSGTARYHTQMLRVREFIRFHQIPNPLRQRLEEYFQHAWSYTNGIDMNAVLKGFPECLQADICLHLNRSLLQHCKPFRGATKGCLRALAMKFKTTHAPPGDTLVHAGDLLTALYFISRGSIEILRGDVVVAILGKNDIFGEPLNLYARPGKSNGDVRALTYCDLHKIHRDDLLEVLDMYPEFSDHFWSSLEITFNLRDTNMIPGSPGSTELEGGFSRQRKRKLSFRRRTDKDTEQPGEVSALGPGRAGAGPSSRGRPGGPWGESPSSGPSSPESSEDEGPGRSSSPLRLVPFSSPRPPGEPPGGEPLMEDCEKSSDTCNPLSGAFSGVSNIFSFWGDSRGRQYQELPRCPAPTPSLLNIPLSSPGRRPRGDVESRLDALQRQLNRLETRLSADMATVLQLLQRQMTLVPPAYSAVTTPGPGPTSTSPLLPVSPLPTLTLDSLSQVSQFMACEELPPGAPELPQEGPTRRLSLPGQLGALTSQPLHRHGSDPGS

Mus musculus [41] = test: Hematotoxicity in mouse assessed as effect on WBC count at 12.5 to 25 mg/kg, po administered daily for 14 days; type: toxicity, organism-based; details: in vivo, 336 h, dose 12.5-25 mg/kg, time 14 day
Mus musculus [42] = test: Hematotoxicity in mouse assessed as effect on platelet count at 12.5 to 25 mg/kg, po administered daily for 14 days; type: toxicity, organism-based; details: in vivo, 336 h, dose 12.5-25 mg/kg, time 14 day
[43] = Toxicity in mouse assessed as pathological changes in heart at 12.5 to 25 mg/kg, po administered daily for 14 days by H and E staining based analysis; type: organism-based; details: in vivo, 336 h, dose 12.5-25 mg/kg, time 14 day
[44] = Toxicity in mouse assessed as pathological changes in liver at 12.5 to 25 mg/kg, po administered daily for 14 days by H and E staining based analysis; type: organism-based; details: in vivo, 336 h, dose 12.5-25 mg/kg, time 14 day
[45] = Toxicity in mouse assessed as pathological changes in lung at 12.5 to 25 mg/kg, po administered daily for 14 days by H and E staining based analysis; type: organism-based; details: in vivo, 336 h, dose 12.5-25 mg/kg, time 14 day
[46] = Toxicity in mouse assessed as pathological changes in spleen at 12.5 to 25 mg/kg, po administered daily for 14 days by H and E staining based analysis; type: organism-based; details: in vivo, 336 h, dose 12.5-25 mg/kg, time 14 day
[47] = Toxicity in mouse assessed as pathological changes in kidney at 12.5 to 25 mg/kg, po administered daily for 14 days by H and E staining based analysis; type: organism-based; details: in vivo, 336 h, dose 12.5-25 mg/kg, time 14 day
NCI-H446 [48] = test: Antitumor activity against human NCI-H446 cells xenografted in female NU-NU mouse model assessed as tumor growth inhibition at 12.5 mg/kg, po administered once daily for 15 days relative to control; type: functional; details: NCI-H446, 360 h, time 15 day, read-out: TGI
NCI-H446 [49] = test: Antitumor activity against human NCI-H446 cells xenografted in female NU-NU mouse model assessed as tumor growth inhibition at 25 mg/kg, po administered once daily for 15 days relative to control; type: functional; details: NCI-H446, 360 h, time 15 day, read-out: TGI
Mus musculus [50] = test: Toxicity in female NU/NU mouse model xenografted with human NCI-H446 cells assessed as effect on body weight at 12.5 to 25 mg/kg, po administered once daily for 15 days; type: organism-based; details: in vivo, 360 h, dose 12.5-25 mg/kg, time 15 day
Mus musculus [51] = test: Toxicity in female NU/NU mouse model xenografted with human NCI-H446 cells expressing luciferase-GFP assessed as effect on body weight at 12.5 to 25 mg/kg, po administered for 19 days; type: organism-based; details: in vivo, 456 h, dose 12.5-25 mg/kg, time 19 day

Chain of Cyclin-dependent kinase 5 (Q00535 whole entry): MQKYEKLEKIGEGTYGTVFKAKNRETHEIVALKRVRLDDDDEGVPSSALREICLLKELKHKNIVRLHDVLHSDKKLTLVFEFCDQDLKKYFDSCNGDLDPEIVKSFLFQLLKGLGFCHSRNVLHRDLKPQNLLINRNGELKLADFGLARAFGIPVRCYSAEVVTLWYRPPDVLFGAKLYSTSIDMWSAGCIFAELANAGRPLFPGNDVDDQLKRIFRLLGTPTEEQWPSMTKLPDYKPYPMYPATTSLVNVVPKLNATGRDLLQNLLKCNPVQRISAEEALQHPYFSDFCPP
Chain of Cyclin-dependent kinase 4 (P11802 whole entry): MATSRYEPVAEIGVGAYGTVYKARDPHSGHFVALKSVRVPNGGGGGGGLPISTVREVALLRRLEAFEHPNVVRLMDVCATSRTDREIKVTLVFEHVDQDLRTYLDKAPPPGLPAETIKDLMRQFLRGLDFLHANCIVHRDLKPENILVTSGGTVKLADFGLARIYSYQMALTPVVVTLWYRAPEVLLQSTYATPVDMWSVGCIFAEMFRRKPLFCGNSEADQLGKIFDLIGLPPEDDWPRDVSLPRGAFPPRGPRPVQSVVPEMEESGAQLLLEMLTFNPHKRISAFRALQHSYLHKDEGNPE
Chain of Cyclin-dependent kinase 1 (P06493 whole entry): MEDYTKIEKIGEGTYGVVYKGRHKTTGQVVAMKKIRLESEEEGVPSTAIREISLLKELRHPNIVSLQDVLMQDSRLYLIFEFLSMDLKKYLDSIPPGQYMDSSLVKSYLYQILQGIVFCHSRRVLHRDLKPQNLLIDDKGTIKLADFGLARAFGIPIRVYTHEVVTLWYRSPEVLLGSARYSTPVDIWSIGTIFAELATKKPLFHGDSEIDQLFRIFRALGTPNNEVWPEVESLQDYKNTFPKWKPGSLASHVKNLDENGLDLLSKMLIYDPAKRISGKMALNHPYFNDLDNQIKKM

SMILES: COCCN1CCN(Cc2ccc(-c3n[nH]c4c3C(=O)c3c(NC(=O)NN5CCOCC5)cccc3-4)cc2)CC1 [RGB-286638]
- IC50 [1]: < 5 nM
- IC50 [2]: < 5 nM
- IC50 [3]: < 5 nM
- IC50 [4]: < 5 nM
- IC50 [5]: < 5 nM

SMILES: O=C1CCC(Nc2cccc(N3CCN(CC4CCN(CC(=O)N5CCC(NC(=O)c6n[nH]cc6NC(=O)c6c(Cl)cccc6Cl)CC5)CC4)CC3)c2)C(=O)N1 (stereo not given)
- IC50 (NCI-H69): 1.03 nM
- IC50 (NCI-H446 [6]): 1.01 nM
- DC50 [7]: 1.09 nM
- remaining at 1 h [8]: 82.8%
- half-life [9]: 2.42 h
- microsomal CLint [10]: 9.4 µL/min/mg
- remaining at 1 h [11]: 76.2%
- half-life [12]: 1.77 h
- microsomal CLint [13]: 11 µL/min/mg
- Papp A→B at 1 h, 2 µM [14]: 1.81 ×10⁻⁶ cm/s
- Papp B→A at 1 h, 2 µM [15]: 9.47 ×10⁻⁶ cm/s
- efflux ratio at 1 h, 2 µM [16]: 5.2
- solubility kinetic at 2 h [17]: 234 µM (≈ 189 µg/mL)
- half-life [18]: 8.2 h
- Cmax [19]: 2600 ng/mL
- AUC(0-t) [20]: 2660 ng·h/mL
- AUC(0-inf) [21]: 2860 ng·h/mL
- half-life [22]: 4.7 h
- Cmax [23]: 277 ng/mL
- AUC(0-t) [24]: 951 ng·h/mL
- AUC(0-inf) [25]: 971 ng·h/mL
- bioavailability [26]: 6.8%
- half-life [27]: 2.8 h
- Cmax [28]: 2000 ng/mL
- AUC(0-t) at 12 h [29]: 2180 ng·h/mL
- AUC(0-inf) [30]: 2330 ng·h/mL
- half-life [31]: 5.4 h
- Cmax [32]: 179 ng/mL
- AUC(0-t) at 12 h [33]: 714 ng·h/mL
- AUC(0-inf) [34]: 893 ng·h/mL
- bioavailability [35]: 6.5%
- IC50 (NCI-H146): 0.53 nM
- IC50 (NCI-H524): 0.53 nM
- IC50 (DMS-114): 0.53 nM
- IC50 at 72 h [36]: 126 nM
- IC50 at 72 h [37]: 413 nM
- IC50 at 72 h [38]: 70 nM
- IC50 at 72 h [39]: 95 nM
- IC50 [40]: > 30000 nM
- Activity (Mus musculus [41]): Non-toxic
- Activity (Mus musculus [42]): Non-toxic
- Activity [43]: Minimal_effect
- Activity [44]: Minimal_effect
- Activity [45]: Minimal_effect
- Activity [46]: Minimal_effect
- Activity [47]: Minimal_effect
- inhibition in vivo at 12.5 mg/kg (NCI-H446 [48]): 79.2%
- inhibition in vivo at 25 mg/kg (NCI-H446 [49]): 84.8%
- Activity (Mus musculus [50]): Non-toxic
- Activity (Mus musculus [51]): Non-toxic
